Measurements taken from US20040048318A1, “Method for screening anti-proliferative compounds and method for inhibiting tumor growth” (priority 2003, published 2004).

What was measured:
methionine 14-3-3γ [1] = assay: IEF-immunoblotting for induction of methionine 14-3-3γ in U20S (osteosarcoma) cells; format: cell-based, human; conditions: for expression of the altered 14-3-3γ isoform: U20S cells treated with the compound (summary statement, no concentration given)
Protocol: [The procedure below names another cell line; the source says it served here with some conditions changed.] (§1) H1299, a non-small cell lung carcinoma which is obtained from the American Type Culture Collection (Rockville, Md.), is cultivated in PRMI1640 supplemented with 10% fetal calf serum and glutamine, penicillin, streptomycin, and gentamycin. The H1299 cells are grown to about 70% confluenc and then cultivated with or without 25 μM bengamide. Samples of the cells are taken at 8, 16, 24 and 48 hours. At the end of the culture periods, the sample cells are washed with PBS (phosphate buffered solution, available from Sigma Chemical) and collected by scraping and centrifugation. The cell pellet is dissolved in 4 volumes of Rabilloud buffer. Rabilloud buffer contained 4% non-ionic detergent CHAPS, 7 M urea, 2 M thiourea, 10 mg/ml dithiothreitol and 1% pharmalytes (pH 3-10), which buffer is disclosed in Electrophoresis, 1997 Mar-Apr., 18 (3-4): 307-16, Rabilloud et al., Improvement of the Solubilization of Proteins in Two-dimensional electrophoresis with immobilized pH Gradients. The cell concentration was between 2 and 2.5 E7/ml.
Immobilized pH-gradient (IPG) gels (Immobiline®, Amersham Pharmacia Biotech) are re-swollen for at least 4 hours in Rabilloud buffer without pharmalytes. Samples (1 μl of cell extract) are directly loaded at a distance of about 2 cm from the anode to the surface of the gel using a comb. Focusing is carried out at 200 V for 2 hours and at 1000 or 3500 V until a 25000 Vh is reached. The temperature is maintained at 15° C. After focusing, the gel is fixed in 12% TCA-3.5% sulfosalicylic acid for 1 hour and washed in water for 1 hour. The washed gel is blotted by placing the gel on a flat surface and covering with a sheet of PVDF-membrane which was sequentially soaked in Isopropanol, water and a guanidinium chloride solution of […] Tris-HCl at pH 7.5, 4 M guanidinium chloride, 1 mg/ml DTT. The membrane is covered with 4 layers of filter paper sheets which was soaked with the guanidinium chloride solution. […]

methionine 14-3-3γ [2] = assay: IEF-immunoblotting for induction of methionine 14-3-3γ in H1299 cells; format: cell-based, human
Protocol: as §1
Immobilized pH-gradient (IPG) gels (Immobiline®, Amersham Pharmacia Biotech) are re-swollen for at least 4 hours in Rabilloud buffer without pharmalytes. Samples (1 μl of cell extract) are directly loaded at a distance of about 2 cm from the anode to the surface of the gel using a comb. Focusing is carried out at 200 V for 2 hours and at 1000 or 3500 V until a 25000 Vh is reached. The temperature is maintained at 15° C. After focusing, the gel is fixed in 12% TCA-3.5% sulfosalicylic acid for 1 hour and washed in water for 1 hour. The washed gel is blotted by placing the gel on a flat surface and covering with a sheet of PVDF-membrane which was sequentially soaked in Isopropanol, water and a guanidinium chloride solution of […] Tris-HCl at pH 7.5, 4 M guanidinium chloride, 1 mg/ml DTT. The membrane is covered with 4 layers of filter paper sheets which was soaked with the guanidinium chloride solution. A polyethylene film is placed over the filter sheets and a 3 kg weight having a 14 cm by 14 cm flat surface is placed over the polyethylene film to ensure a good contact between the layers. The gel layers are undisturbed to allow transfer for overnight, then the membrane is washed with water and treated with a solution of 0.5% formaldehyde in PBS for 30 minutes. The membrane is incubated with 2% glycine in PBS at pH 7 for 30 minutes.
The membrane is then blocked with 0.05% Tween 20-1% skimmed dry milk powder in PBS for 1 hour. Commercially available antibodies against 14-3-3 (Santa Cruz) are applied for 4 hours in blocking buffer. Chemiluminescence detection (ECL-kit, Amersham Pharmacia Biotech) is carried out using the secondary antibodies supplied with the kit.

methionine 14-3-3γ [3] = assay: IEF-immunoblotting for induction of methionine 14-3-3γ in MDA-MB435 (mammary carcinoma) cells; format: cell-based, human; conditions: 200 nM LAF389, within 18 hours
Protocol: [The procedure below names another cell line; the source says it served here with some conditions changed.] as §1
(§2) Immobilized pH-gradient (IPG) gels (Immobiline®, Amersham Pharmacia Biotech) are re-swollen for at least 4 hours in Rabilloud buffer without pharmalytes. Samples (1 μl of cell extract) are directly loaded at a distance of about 2 cm from the anode to the surface of the gel using a comb. […]

methionine 14-3-3γ [4] = assay: IEF-immunoblotting of white blood cell fraction from treated rats for methionine 14-3-3γ; format: in vivo; conditions: 3 mg/kg three times for a day, rested 7 days, dosed three times again, blood collected after one day rest
Protocol: One group of laboratory rats is treated with the bengamide analogue LAF389 of Example 2 three times for a day at the 3 mg/kg dosage, then rested for 7 days. Th rats are again dosed three times the following day with the dosage. They are rested for one day and blood samples are collected. Peripheral blood is collected by a percoll gradient centrifugation protocol. The white blood cell fraction including platelets is recovered and the pellet is lysed in IEF sample buffer. The bio-samples are analyzed with the IEF-immunoblotting analysis. Control bio-samples are obtained from a group of rats that are not treated with the bengamide analogue.

methionine 14-3-3γ [5] = assay: IEF-immunoblotting for induction of methionine 14-3-3γ in A549 (lung carcinoma) cells; format: cell-based, human; conditions: 200 nM LAF389, within 18 hours
Protocol: [The procedure below names another cell line; the source says it served here with some conditions changed.] as §1, §2

CO[C@@H]1[C@H](OC(=O)/C=C/C=C/C=C/C=C/C(=O)O)CC[C@]2(CO2)[C@H]1[C@@]1(C)O[C@@H]1CC=C(C)C [fumagillin]
expression of the altered 14-3-3γ isoform (methionine 14-3-3γ [1]): express the altered 14-3-3γ isoform

bengamide
expression of the altered 14-3-3γ isoform (methionine 14-3-3γ [1]): express the altered 14-3-3γ isoform
induction/accumulation of methionine 14-3-3γ (IEF-immunoblotting) (methionine 14-3-3γ [2]; 25 μM bengamide, samples at 8, 16, 24 and 48 hours): gradually accumulate over the 48 hour culture period the protein that reacts with the 14-3-3γ specific antibody

COC(C(=O)NC1CCC(OC(=O)C2CCCCC2)CNC1=O)C(O)C(O)C(O)/C=C/C(C)(C)C (stereo not shown) [LAF389]
induction of methionine 14-3-3γ (IEF-immunoblotting) (methionine 14-3-3γ [1]; U20S cells, 200 nM LAF389, within 18 hours): induce methionine 14-3-3γ within 18 hours
induction of methionine 14-3-3γ (IEF-immunoblotting) (methionine 14-3-3γ [3]): induce methionine 14-3-3γ within 18 hours
induction and accumulation of methionine 14-3-3γ in white blood cell fraction (methionine 14-3-3γ [4]): induce and accumulate methionine 14-3-3γ
induction/accumulation of methionine 14-3-3γ (IEF-immunoblotting) (methionine 14-3-3γ [2]; 200 nM LAF389, samples at 8, 16, 24 and 48 hours): induce and accumulate the protein which is reactive to the 14-3-3γ antibody
induction of methionine 14-3-3γ (IEF-immunoblotting) (methionine 14-3-3γ [2]; 18 hours, LAF389 200 nM, 5-fluorouracil 20 μg/ml, epothilone 500 nM, doxorubicin 1 μg/ml, stauosporin 1 μM): induced methionine 14-3-3γ
induction of methionine 14-3-3γ (IEF-immunoblotting) (methionine 14-3-3γ [5]): induce methionine 14-3-3γ within 18 hours

CO[C@@H]1[C@H](OC(=O)NC(=O)CCl)CC[C@]2(CO2)[C@H]1[C@@]1(C)O[C@@H]1CC=C(C)C [AGM-1470]
induction of methionine 14-3-3γ (IEF-immunoblotting) (methionine 14-3-3γ [2]; AGM-1470 in place of bengamide): induce methionine 14-3-3γ
